Where two headings read alike, the source gives them in different places. Square brackets hold non-standard residues; d marks the D form. Ends that are not written are not given here.
Tests used:
[1] = tested on: GFP-FoxM1B; assay: Nuclear localization of transfected GFP-FoxM1B in U2OS cells; type: cell-based, human; conditions: 1 μM
Text: FIGS. 7A-H show nuclear localization of GFP-FoxM1B fusion protein following treatment with either pharmacological kinase inhibitors or dominant negative kinases. U20S cells were transiently transfected with CMV GFP-FoxM1B with the indicated pharmacological kinase inhibitors (B-D) or dominant-negative kinase expression vectors (E-H). Cells in panel (A) were untreated.
U2OS cells were transiently transfected in 2 well chamber slides (Nunc) with CMV GFP-FoxM1B expression constructs in the presence or absence of either CMV WT T7-p19^ARF, CMV HA-p19^ARF, or CMV expression constructs containing either N-terminal mutant T7-p19^ARF proteins (Δ1-14, Δ15-25, or Δ26-37) or V5-TAT-p19^ARF proteins (26-44; SEQ ID NO: 11, or 26-55; SEQ ID NO: 12). U2OS cells were transiently transfected with CMV EGFP expression vector containing the TAT-p19^ARF proteins (26-44; SEQ ID NO: 11, or 26-55; SEQ ID NO: 12). Forty-eight hours post transfection, cells were fixed in 4% Para-formaldehyde for 20 minutes at room temperature. GFP fluorescence or immuno-fluorescence with anti-HA antibody following TRITC conjugated secondary antibody was detected using a Zeiss microscope. U2OS cells were treated with 12 μM of the rrrrrrrrrKFVRSRRPRTASCALAFVN (SEQ ID NO: 10) peptide for 24 hours and then analyzed for TRITC fluorescence as described above.

[2] = tested on: HCC; conditions: cited from earlier work
[3] = tested on: FoxM1B transcriptional activity; assay: FoxM1B transcriptional activity, 6xFoxM1B TATA-luciferase reporter assay in transfected U2OS cells; type: cell-based, human; conditions: 12 μM peptide, 24 hours
Text: A 6×FoxM1B/FoxA TATA-Luciferase utilized 6 copies of the FoxM1B/FoxA binding site (TTTGTTTGTTTG; SEQ ID NO: 6) from the cdx-2 promoter region driving expression of the CMV-TATA box luciferase reporter gene as described previously (Rausa et al., 2003, Mol. Cell. Biol. 23:437-449; Samadani et al., 1996, Mol. Cell. Biol. 16:6273-6284; Ye et al., 1997, Mol. Cell Biol. 17:1626-1641).
Inhibiting Cdk1 activity with either dominant negative (DN) Cdk1 or a pharmacologically active concentration of Alsterpaullone (1 μM) caused an 80% to 90% reduction in FoxM1B transcriptional activity (FIG. 6C). […] Consistent with these findings, stimulation of Cdk1 activity by co-transfection of either CMV Cdc25B or Cdc25C phosphatases enhanced FoxM1B transcriptional activity by 3.4-fold and 1.7-fold, respectfully (FIGS. 6B and 6D). […]
Human osteosarcoma U2OS cells were maintained in DMEM supplemented with 10% fetal calf serum, 1×Pen/Strep and 1×L-Glutamine (Gibco). […] Luciferase activity was determined as percent of wild type FoxM1B activity following normalization to Renilla activity. Experiments were performed at least four times in triplicate and mean±SD determined. […]

[4] = tested on: parental U2OS cells; assay: Soft agar colony formation, parental U2OS cells; type: cell-based, human; conditions: 12 μM peptide, two weeks
Method: (§1) The T-REx™-U2OS cells were purchased from Invitrogen Life Technologies (Catalog No. R712-07). The T-REx™-U2OS cells express the Tet repressor from pCEP4/tetR that was episomally maintained in tissue culture medium containing 10% fetal calf serum and drug selection with 50 μg/ml of Hygromycin B. Tetracycline regulation in the T-REx System was based on the binding of tetracycline to the TET repressor and de-repressing of the CMV-TETO promoter controlling expression of the gene of interest (Yao et al., 1998, Hum Gene Ther 9:1939-1950). The pcDNA4-TO GFP-FoxM1B expression plasmid provided in the T-REx™ system was generated as described previously (Major et al., 2004, Mol. Cell. Biol. 24:2649-2661) and transfected T-REx™-U2OS cells with linearized pcDNA4-TO GFP-Foxm1b expression plasmid to select clonal Doxycycline inducible GFP-Foxm1b U2OS cell lines. CMV-TETO GFP-FoxM1B U2OS clones were isolated by selection for three weeks with tissue culture medium containing 50 μg/ml of Hygromycin B and 250 μg/ml of Zeocin. […] Wild type U2OS cells or CMV-TETO GFP-Foxm1b U2OS clone C3 cells were grown in medium with or without 1 μg/ml of Doxycycline for 2 days prior to either adding the (D-Arg)9-p19^ARF 26-44 peptide or left untreated. […] U2OS cell colonies that were larger than 1 mm in size were scored after two weeks of growth on the soft agar.

[5] = tested on: CMV-TETO GFP-Foxm1b U2OS clone C3 cells; assay: Soft agar colony formation, Doxycycline induced GFP-FoxM1B U2OS clone C3 cells; type: cell-based, human; conditions: 12 μM peptide, 1 μg/ml Doxycycline, two weeks
Method: as §1

[6] = tested on: p53 null thymic lymphoma cells; assay: Kidney colonization of intravenously injected p53 null thymic lymphoma cells in SCID mice; type: in vivo, mouse; conditions: 2.5 mg/kg intraperitoneal every other day, 10 injections
Method: These experiments were performed to determine if modifying the termini conferred any advantages on these peptides when administered to an animal. Both wild type ARF 26-44 (rrrrrrrrrKFVRSRRPRTASCALAFVN) (SEQ ID NO 10) and mutant ARF 37-44 (rrrrrrrrrSCALAFVN) (SEQ ID NO 21) peptides were synthesized by Genemed Synthesis Inc. (San Antonio, Tex.). The N-terminus of each peptide was fused with nine D-Arg(r) residues. Both wild type and mutant peptides were blocked with amidation on C-terminus and acetylation on N-terminus. For sarcoma cells, mice were treated with 5 mg/kg body weight of peptide every other day for 10 times. For lymphoma cells, mice were treated with 2.5 mg/kg body weight of peptide every other day for 10 times.
To test the therapeutic effect of the ARF-peptide on p53 null tumors in vivo, p53 null lymphoma/sarcoma cells were introduced into the circulation of SCID mice through intravenous injection. ICR SCID mice were obtained from Taconic Farms (Germantown, N.Y.). Both p53 null sarcoma and lymphoma cells were stably transduced before injection with lentivirus carrying a gene conferring luciferase expression. Specifically, cells were stably transduced with pFU-L2G luciferase construct obtained from Sanjiv Sam Gambhir (M. D., Ph.D) of Stanford University as optimized by Dr. Huiping Liu (Liu et al., Proc Natl Acad Sci USA, 107: 18115-18120). This construct enabled expression of both the bioluminescence and green fluorescence protein. eGFP positive cells were sorted by Beckman Coulter MoFlo. 3×10^6 cells were suspended in cold PBS and injected through the tail vein of SCID mice. Live animal imaging was performed using an IVIS Spectrum optical imaging machine (Caliper Life Sciences, Alameda, Calif.). […] Mice were randomized into three groups and were treated with PBS, mutant-peptide or the wild type ARF-peptide for 10 injections every other day by intraperitoneal injection. […] The mice were sacrificed and lung sections were analyzed for tumor colonies. […] For the p53 null thymic lymphoma cells, metastatic growth in kidney was observed, consistent with murine thymic lymphoma cells having a tendency to colonize kidney, liver and spleen (Aoudjit et al., 1998, Blood, 91: 623-629).

[7] = tested on: S2 cells; conditions: 24 hours
Method: TUNEL assay was used to measure apoptosis in S2 cells treated with WT-blocked, mutant-blocked or WT-unblocked (D-Arg)9-p19^ARF 26-44 peptides. (D-Arg)9-p19^ARF 26-44 peptide treatment of cells was performed in 8-well chamber slides for TUNEL staining. On Day 0, 20,000 cells per well were seeded in the 8-well chamber slides. On Day 1, slides were replenished with fresh media containing one of the following concentrations of either WT-blocked, mutant-blocked or WT-unblocked (D-Arg)9-p19^ARF 26-44 peptides: 10, 15, 25, 30, 40 and 70 μM for 24 hours. On Day 2, TUNEL staining was performed following the manufacture's protocol (ApopTag® Fluorescein In Situ Apoptosis Detection Kit from CHEMICON® International, S7110). The percent of apoptosis of S2 cells (±SD) was measured by counting the number of TUNEL-positive cells (green fluorescence) per 1,000 nuclei as visualized by DAPI (blue fluorescence) counterstaining. The experiment was repeated in a second experiment using the same protocol. Statistical analysis and EC50 calculation were performed using GraphPad Prism software.

For O=C1Cc2c([nH]c3ccc([N+](=O)[O-])cc23)-c2ccccc2N1 [Alsterpaullone], the “Nuclear localization of transfected CMV GFP-FoxM1B protein” value [1] was “Neither DN-Cdk1 nor Alsterpaullone (1 μM) altered nuclear localization”.
In the case of “rrrrrrrrrKFVRSRRPRTASCALAFVN ([dR][dR][dR][dR][dR][dR][dR][dR][dR]KFVRSRRPRTASCALAFVN; not fully specified (N-terminus, C-terminus); printed as rrrrrrrrrKFVRSRRPRTASCALAFVN; also: end groups differ between preparations (TRITC N-term/acetyl C-term vs Ac N-term/amide C-term); listed as Mus musculus) [(D-Arg)9-p19^ARF 26-44 peptide, p19ARF 26-44 peptide containing nine D-Arg residues at the N-terminus]”, the “HCC tumor size / progression” value ([2]; mouse HCC (DEN/PB induced)) is listed as “effective in diminishing tumor size in HCC”, the “Metastasis of HCC cells” value ([2]; mouse HCC cells) is listed as “effectively prevented pulmonary metastasis of HCC cells” and the “Effect on FoxM1B transcriptional activity” value [3] is listed as “significant reduction in FoxM1B transcriptional activity”. For the same compound, the “Colony formation on soft agar” value [4] was “significantly diminished the ability of the parental U2OS cells to form colonies on soft agar” and the “FoxM1B induced colony formation on soft agar” value [5] was “significantly diminished the ability of induced GFP-FoxM1B to stimulate colony formation”.
For “rrrrrrrrrSCALAFVN (SCALAFVN-NH2; not fully specified (N-terminus); printed as rrrrrrrrrSCALAFVN; UniProt Q64364 37-44, looked up, fragment) [mutant ARF peptide, reference compound]”, the “Kidney tumor mass at sacrifice” value [6] was “large tumor masses were found in the kidney” and the “Luciferase signal from colonized lymphoma cells” value ([6]; around 20 days after inoculation) was “displayed strong luciferase signals”.
For “rrrrrrrrrKFVRSRRPRTASCALAFVN (not fully specified (N-terminus, C-terminus); printed as rrrrrrrrrKFVRSRRPRTASCALAFVN; UniProt Q64364 26-44, looked up, fragment) [WT Unblocked]”, the “% of TUNEL Positive S2 Cells, Mean” value ([7]; Experiment 1, 10 μM/Well) was 2.46%, the “% of TUNEL Positive S2 Cells, Mean” value ([7]; Experiment 1, 25 μM/Well) was 1.27% and the “% of TUNEL Positive S2 Cells, Mean” value ([7]; Experiment 1, 30 μM/Well) was 5.59%. For the same compound, the “% of TUNEL Positive S2 Cells, Mean” value ([7]; Experiment 1, 40 μM/Well) was 19.94%, the “% of TUNEL Positive S2 Cells, Mean” value ([7]; Experiment 2, 10 μM/Well) was 6.79% and the “% of TUNEL Positive S2 Cells, Mean” value ([7]; Experiment 2, 15 μM/Well) was 7.56%. For the same compound, the “% of TUNEL Positive S2 Cells, Mean” value ([7]; Experiment 2, 25 μM/Well) was 11.19%, the “% of TUNEL Positive S2 Cells, Mean” value ([7]; Experiment 2, 40 μM/Well) was 20.51% and the “% of TUNEL Positive S2 Cells, Mean” value ([7]; Experiment 2, 70 μM/Well) was 30.34%. The “Apoptosis induction compared between peptides (TUNEL)” value ([7]; S2 cells, 10-70 μM) was “showed some activity compared to the mutant-blocked peptide at doses higher than 30 μM”.

From patent publication US8906860B2, “Methods and compositions inhibiting tumor cell proliferation” (The Board of Trustees of the University of Illinois, priority 2011, dated 2014)
